Laboratory results published in publication PMC6747225 (International Journal of Environmental Research and Public …, 2019).

What was measured:
CY2D6 enzyme = settings: humans and mammals; cited from earlier work
[1] = system: superoxide dismutase (SOD); assay: Superoxide dismutase (SOD) activity in fish liver; assay type: in vivo, Carassius auratus; settings: SER alone 5 μg·L^−1 compared to control, seven days
Method: A dechlorinated water control treatment and solvent control treatment (0.1% methanol) were also set in the exposure treatments. Each treatment was prepared in six replicate tanks (30 L) with four fish per tank. Fish were not fed during the exposure period. The exposure solutions were refreshed every 24 h. After the exposure experiment, six fish were sampled in each treatment for biochemical assay and chemical analysis. The liver, brain, gills, and muscle were dissected, immediately frozen in liquid nitrogen, and stored at −80 °C until the assays. The remaining 18 fish in each treatment were used for behavioral trials at the end of exposure.
The tissue sample was homogenized in chilled physiological saline solution (1:10, w/v). The homogenates were then centrifuged for 10 min (10,000 g) at 4 °C. The obtained supernatant was used to determine enzyme activity, MDA content, and protein concentration using bioassay kits according to the manufacturer’s protocol. Enzyme activity is reported as unit (U) mg^−1 protein, and MDA content is expressed in nmol mg^−1 protein.

## CN(C)CCOC(c1ccccc1)c1ccccc1 [DPH, diphenhydramine]
CY2D6 enzyme
  Inhibition of the CY2D6 enzyme: strong inhibitor

## CN[C@H]1CC[C@@H](c2ccc(Cl)c(Cl)c2)c2ccccc21 [SER, sertraline]
[1]
  SOD activity: not significantly changed
